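How tested: cells in 96-well plates exposed to compound for 48 hours at five concentrations. GI50 marks 50% less growth. TGI is the concentration that stops growth completely.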
Key:
Test in all cases: NCI anticancer screen, dose series, 48 h
BT-549 breast = system: BT-549 breast
OVCAR-3 ovarian = system: OVCAR-3 ovarian
SF-268 CNS = system: SF-268 CNS
MDA-MB-435 = system: MDA-MB-435
HCC-2998 colon = system: HCC-2998 colon
SK-OV-3 ovarian = system: SK-OV-3 ovarian
SK-MEL-5 melanoma = system: SK-MEL-5 melanoma
SW-620 colon = system: SW-620 colon
IGROV1 ovarian = system: IGROV1 ovarian
TK-10 renal = system: TK-10 renal

SMILES	GI50 (BT-549 breast) [µM]	TGI (BT-549 breast) [µM]	GI50 (OVCAR-3 ovarian) [µM]	TGI (OVCAR-3 ovarian) [µM]	GI50 (SF-268 CNS) [µM]	TGI (SF-268 CNS) [µM]	GI50 (MDA-MB-435) [µM]	TGI (MDA-MB-435) [µM]	GI50 (HCC-2998 colon) [µM]	TGI (HCC-2998 colon) [µM]	GI50 (SK-OV-3 ovarian) [µM]	TGI (SK-OV-3 ovarian) [µM]	GI50 (SK-MEL-5 melanoma) [µM]	TGI (SK-MEL-5 melanoma) [µM]	GI50 (SW-620 colon) [µM]	TGI (SW-620 colon) [µM]	GI50 (IGROV1 ovarian) [µM]	TGI (IGROV1 ovarian) [µM]	GI50 (TK-10 renal) [µM]	TGI (TK-10 renal) [µM]
Nc1n[nH]c2cccc(C#Cc3cccc(C(=O)Nc4cc(CN5CCOCC5)cc(C(F)(F)F)c4)c3)c12	4.33	18.8	7.41	31.3	5.66	22.1	3.46	15.2	3.3	12.2	15.5	34.8	4.34	16	4.59	24.3	3.23	11.7	11.4	27.5
CC12CC(OC(=O)[C@]1(C)O)[C@@H]([C@]1(O)CC[C@H]3[C@@H]4C[C@H]5O[C@]56[C@@H](O)C=CC(=O)[C@]6(C)[C@H]4CC[C@@]31C)C2 (stereo partly drawn)		9.57		7.72		30.2		29.4		36.4		> 100		17.8		12.4		35.1		20.2
O=C(c1cccnc1)c1cc(-c2ccccn2)c(=O)n2ccccc12	> 100	> 100	> 100	> 100	> 100	> 100	> 100	> 100	> 100	> 100	> 100	> 100	> 100	> 100	> 100	> 100	> 100	> 100	> 100	> 100
CCOC(=O)c1nc(Nc2ccc(Cl)cc2)c2ccccc2n1	10.2	25.5	6.11	13.2	10.1	25.1	6.85	13.3	8.46	15.6	10.6	24	7.19	13.8	17.2	> 50	10.7	26	8.11	19.3
O=C(N/N=C/c1cc([N+](=O)[O-])ccc1O)c1cccc2ccccc12	1.63	23.7	3.67	> 100	4.12	> 100	7.18	> 100	5.3	> 100	4	33.3	3.15	14.3	3.7	> 100	2.36	8.47	4.4	72.9
O=C(OCCBr)c1ccc(Cl)c([N+](=O)[O-])c1	18.1	33.1	2.69	6.43	5.44	10.3	15.5	30.9	1.91	3.67	17.2	31	14.9	28.5	14.6	30.2	16.5	37.6	> 51.1	> 86.8
CCNCCNc1cc(C2CCCCC2)c(C#N)c2nc3ccccc3n12	1.77	3.64	1.7	3.29	1.9	4.38	1.73	3.4	2.53	6.79	1.81	3.48	1.71	3.1	1.44	3.15	2.38	7.04	2.41	6.12
CCCc1cc(=O)n2c(C(=O)Nc3ccccc3OC)c(C(=O)Nc3ccc(F)cc3)sc2n1	31	71.1	9.56	34.1	14.3	38	36.5	> 160	131	> 160	22.2	96.7	48.6	> 160	31	> 160	21.5	46.2	26	64.3
c1ccc(CSc2nnc3c4ccccc4c4ccccc4c3n2)cc1		> 100		> 70.9		67.9		> 100		> 100		50		> 100		> 100		> 46.6		84.5
Cn1ccnc1C(=O)/C=C/c1ccc(CC(=O)Nc2ccc(C(F)(F)F)cc2)cc1	2.56	5.33	2.95	6.88	3.03	7.88	3.88	12.5	2.87	5.44	6.6	> 16.7	3.83	11.2	4.17	> 16.7	4.37	12.9	5	15.3
CCCCN(CCCC)c1ccc(C(=NC(C)CCCN(CC)CC)c2ccc(N(C)C)cc2)cc1 (stereo not drawn)	0.838	1.73	0.846	1.81	0.864	2.06	0.783	1.57	0.922	1.77	1.14	2.33	0.806	1.5	0.793	1.68	0.897	1.95	1.34	3.99
O=C(CN(/C=C/C(=O)C(F)(F)F)c1ccccc1)c1ccc(Cl)c(Cl)c1	10.9	29.5	14.1	30	18.4	40.7	14.9	31.9	15.8	29.9	21.1	40.1	13.2	26.3	14.6	30.1	5.76	19.7	15.9	32.8
COC(=O)C1=C(OC(=O)c2ccc(Cl)cc2)C(C(=O)OC)[C@@]2(O)[C@@H](C(=O)OC)C(c3ccccc3Cl)C[C@@H]1[C@@H]2C(=O)OC (stereo partly drawn)	5.47	> 100	1.76	5.95	5.41	> 100	2.06	4.93	14.3	> 100	19.8	91.9	5.19	26.5	4.54	> 100			8	> 100
